Assay results: patent US20040033595A1, “Conditionally replicating vectors for inhibiting viral infections” (priority 2001, published 2004)

Tests used:
Human CD4+ T cells = test: Sensitivity of human CD4+ T cells to BG and BCNU (expansion in culture); assay type: cell-based; settings: for dose dependence of CD4 cell killing / toxicity: increasing dose
Experimental: CD14 depleted CD4+ cells were purified from peripheral blood with or without cytokine mobilization. […] Under appropriate conditions in the absence of […] and BCNU, CD4+ cells can be expanded up to 100 fold over 10 days in culture. Doses tested were 0, 0.2, 0.5, 2, 5, 10, 20, 30, and 40 μM BG and 0, 2, 5, 10, 20, 30, and 40 μM BCNU. A series of three experiments were performed.

HIV = settings: human, in vivo; cited from earlier work
wild-type U5-HIV RNA = test: In vitro ribozyme cleavage of radiolabeled wild-type U5 HIV RNA (PAGE, autoradiography); assay type: biochemical; settings: target to ribozyme molar ratio 1:2, 37° C. 5 min
Experimental: (§1) To confirm the resistance to ribozyme cleavage of the crHIV vectors, in vitro transcription was performed. To accomplish this, the ribozyme sequences were cloned into the Xho I site of pBluescript KSII (Stratagene, La Jolla, Calif.). A 0.21 kilobase pair (kb) Bgl II fragment containing the mutated crHIV U5 region similarly was excised from the crHIV vector and inserted into the Bam HI site of pBluescript KSII. The resultant modified pBluescript KSII vectors were linearized with Bss HII prior to in vitro transcription. A similar plasmid expressing wild-type HIV U5 RNA (described in Myers et al. (1994), supra) was employed as a control. It was linearized with Eco RI prior to in vitro transcription.
(§2) Radiolabeled U5 HIV RNA and ribozyme RNA were produced by in vitro transcription of the vectors, as previously described (Dropulic' et al. (1992), supra). The radiolabeled transcripts were incubated together (at a target to ribozyme molar ratio of 1:2) in 1×transcription buffer containing 40 mM Tris-HCl, pH 7.5, 6 mM MgCl2, 2 mM Spermidine, and 10 mM NaCl. The samples were heated to 65° C., and then cooled to 37° C. for 5 min prior to the addition of stop buffer solution containing 95% formamide, 20 mM EDTA, 0.05% Bromophenol Blue, and 0.05% Xylene Cyanol FF. The products' were then resolved by denaturing polyacrylamide gel electrophoresis (PAGE), and detected by autoradiography.

[1] = system: modified U5-containing crHIV RNA; test: In vitro ribozyme cleavage of radiolabeled modified crHIV U5 RNA (PAGE, autoradiography); assay type: biochemical; settings: target to ribozyme molar ratio 1:2, 37° C. 5 min
Experimental: as §1, §2

O=NN(CCCl)C(=O)NCCCl [BCNU, 1,3-bis(2-chloroethyl)-1-nitrosourea]
growth delay of CD4+ cells (Human CD4+ T cells; BCNU alone): did not result in growth delay | dose dependence of CD4 cell killing / toxicity (Human CD4+ T cells): toxicity to CD4 cells increased with the BCNU dose

Nc1ccn([C@H]2CC[C@@H](CO)O2)c(=O)n1 [ddC]
range virustatic in most patients (HIV): 0.005-0.25 mg/kg body weight

Nc1nc(OCc2ccccc2)c2nc[nH]c2n1 [BG, O^6-benzylguanine]
dose dependence of CD4 cell killing / toxicity (Human CD4+ T cells): did not increase cell killing

CACACAACACTGATGAGGCCGAAAGGCCGAAACGGGCACA (expressed or natural sequence) [the +115 ribozyme]
cleavage of wild-type U5-HIV RNA (wild-type U5-HIV RNA): cleavage was readily observed | cleavage of modified U5-containing crHIV RNA [1]: cleavage products were not detected
